Test [1] has as its target Dual specificity mitogen-activated protein kinase kinase 2 (Homo sapiens) (UniProt P36507). Briefly: Selectivity interaction (Kinase panel (Z-LYTE Assay)) EUB0001632a MAP2K2. Conditions: at 10 µM.
Test [2] deals with Cyclin-dependent kinase 16 (Homo sapiens) (UniProt Q00536). In words: Selectivity interaction (KinomeScan (DiscoverX)) EUB0000607a CDK16. Conditions: at 10 µM.
In test [3] the target is Proto-oncogene tyrosine-protein kinase ROS (Homo sapiens) (UniProt P08922). Briefly: Selectivity interaction (SelectScreen profiling (Invitrogen)) EUB0000607a ROS1. To be noted: at 2 µM.
Test [4] has as its target Casein kinase I isoform alpha (Homo sapiens, UniProt P48729). Briefly: Selectivity interaction (KinomeScan (DiscoverX)) EUB0000607a CSNK1A1. To be noted: at 10 µM.
Test [5] concerns the target T1, Cyclin-dependent kinase-like 2 (Homo sapiens) (UniProt Q92772).
T1 sequence (whole entry): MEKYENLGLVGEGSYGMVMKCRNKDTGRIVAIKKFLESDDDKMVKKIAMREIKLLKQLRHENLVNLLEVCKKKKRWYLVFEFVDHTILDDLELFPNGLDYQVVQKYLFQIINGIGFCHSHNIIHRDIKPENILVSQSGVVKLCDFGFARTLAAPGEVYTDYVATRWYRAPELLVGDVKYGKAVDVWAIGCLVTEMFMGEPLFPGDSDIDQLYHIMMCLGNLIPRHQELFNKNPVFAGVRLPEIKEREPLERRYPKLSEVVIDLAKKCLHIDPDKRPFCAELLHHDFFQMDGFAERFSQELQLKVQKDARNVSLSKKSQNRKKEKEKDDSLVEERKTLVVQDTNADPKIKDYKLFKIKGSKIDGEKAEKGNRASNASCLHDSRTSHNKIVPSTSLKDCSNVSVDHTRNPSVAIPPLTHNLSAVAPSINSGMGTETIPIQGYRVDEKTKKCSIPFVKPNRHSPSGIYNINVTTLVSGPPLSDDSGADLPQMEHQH
Briefly: Selectivity interaction (KinomeScan (DiscoverX)) EUB0000666a CDKL2. Conditions: at 10 µM.

Test [6] addresses T2, Serine/threonine-protein kinase RIO3 (Homo sapiens) (UniProt O14730).
T2 sequence (whole entry): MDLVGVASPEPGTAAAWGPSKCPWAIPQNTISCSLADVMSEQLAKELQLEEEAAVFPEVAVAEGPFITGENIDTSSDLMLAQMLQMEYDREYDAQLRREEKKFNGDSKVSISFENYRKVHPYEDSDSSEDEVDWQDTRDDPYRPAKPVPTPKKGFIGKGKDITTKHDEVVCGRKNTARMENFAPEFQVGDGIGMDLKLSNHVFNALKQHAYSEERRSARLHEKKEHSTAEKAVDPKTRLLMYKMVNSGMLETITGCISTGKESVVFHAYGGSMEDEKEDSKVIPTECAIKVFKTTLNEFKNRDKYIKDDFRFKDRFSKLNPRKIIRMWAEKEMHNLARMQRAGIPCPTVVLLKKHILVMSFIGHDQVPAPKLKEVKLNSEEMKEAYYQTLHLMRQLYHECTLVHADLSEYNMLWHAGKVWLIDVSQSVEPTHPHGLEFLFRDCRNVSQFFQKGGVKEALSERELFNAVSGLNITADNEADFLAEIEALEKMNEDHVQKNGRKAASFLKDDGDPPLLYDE
In words: Selectivity interaction (KinomeScan (DiscoverX)) EUB0000229b RIOK3. To be noted: at 10 µM.

In test [7] the target is 5'-AMP-activated protein kinase catalytic subunit alpha-2 (Homo sapiens) (UniProt P54646). In words: Selectivity interaction (ActivX KiNativ screen (ex vivo kinase selectivity in human PBMCs)) EUB0001619a PRKAA2. The test is classed as cell-based. To be noted: PBMC, at 1 µM.
Chain of 5'-AMP-activated protein kinase catalytic subunit alpha-2 (Homo sapiens) (P54646 whole entry, looked up): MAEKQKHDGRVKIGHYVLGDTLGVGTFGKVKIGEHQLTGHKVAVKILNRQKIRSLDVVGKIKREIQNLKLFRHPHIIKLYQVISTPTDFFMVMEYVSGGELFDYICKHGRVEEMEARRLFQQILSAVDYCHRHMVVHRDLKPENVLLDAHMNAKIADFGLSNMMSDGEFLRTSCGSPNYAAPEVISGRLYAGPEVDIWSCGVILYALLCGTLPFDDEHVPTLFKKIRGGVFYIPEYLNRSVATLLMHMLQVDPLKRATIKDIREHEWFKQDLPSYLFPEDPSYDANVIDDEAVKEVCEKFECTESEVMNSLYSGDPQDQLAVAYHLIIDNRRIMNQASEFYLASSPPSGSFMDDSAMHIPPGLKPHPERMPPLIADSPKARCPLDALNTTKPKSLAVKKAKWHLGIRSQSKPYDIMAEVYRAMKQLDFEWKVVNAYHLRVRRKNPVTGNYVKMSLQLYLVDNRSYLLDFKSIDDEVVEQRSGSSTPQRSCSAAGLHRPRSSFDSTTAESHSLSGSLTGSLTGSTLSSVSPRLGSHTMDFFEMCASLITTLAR
Test [8] addresses Melanocortin receptor 3 (Homo sapiens, UniProt P41968). Briefly: Selectivity interaction (Melanocortin MC3 receptor binding assay, human recombinant ) EUB0000877a MC3R.
Test [9] addresses Calcium/calmodulin-dependent protein kinase kinase 2 (Homo sapiens) (UniProt Q96RR4). Briefly: Selectivity interaction (ActivX KiNativ screen (kinase selectivity in THP-1 cell lysates)) EUB0000639a CAMKK2. The format is subcellular. Conditions: lysate, at 5 µM.
The target in test [10] is Ribosomal protein S6 kinase alpha-3 (Homo sapiens, UniProt P51812). Briefly: Selectivity interaction (ActivX KiNativ screen (kinase selectivity in THP-1 cell lysates)) EUB0000639a RPS6KA3. To be noted: lysate, at 0.04 µM. The format is subcellular.
Chain of Ribosomal protein S6 kinase alpha-3 (P51812 whole entry): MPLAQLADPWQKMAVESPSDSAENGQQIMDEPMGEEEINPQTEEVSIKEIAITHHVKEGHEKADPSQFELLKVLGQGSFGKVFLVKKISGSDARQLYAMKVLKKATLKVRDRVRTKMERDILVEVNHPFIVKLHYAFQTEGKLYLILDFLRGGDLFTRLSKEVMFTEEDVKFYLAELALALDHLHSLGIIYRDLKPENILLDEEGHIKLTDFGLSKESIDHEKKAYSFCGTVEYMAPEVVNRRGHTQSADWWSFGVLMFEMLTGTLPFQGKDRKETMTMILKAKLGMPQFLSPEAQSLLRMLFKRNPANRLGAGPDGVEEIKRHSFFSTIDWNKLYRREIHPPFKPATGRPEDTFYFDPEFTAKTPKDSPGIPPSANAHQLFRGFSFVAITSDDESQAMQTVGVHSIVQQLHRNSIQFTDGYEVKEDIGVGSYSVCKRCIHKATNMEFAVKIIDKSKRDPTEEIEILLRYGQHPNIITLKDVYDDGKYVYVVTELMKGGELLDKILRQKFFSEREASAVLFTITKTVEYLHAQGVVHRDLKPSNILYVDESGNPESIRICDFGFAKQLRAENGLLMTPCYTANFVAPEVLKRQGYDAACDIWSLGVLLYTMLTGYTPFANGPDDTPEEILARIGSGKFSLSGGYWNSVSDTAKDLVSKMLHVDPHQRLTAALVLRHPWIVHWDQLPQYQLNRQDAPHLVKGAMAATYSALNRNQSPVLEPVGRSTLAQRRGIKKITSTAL
For test [11], the target named is Serine/threonine-protein kinase 38-like (Homo sapiens) (UniProt Q9Y2H1). Briefly: Selectivity interaction (ActivX KiNativ screen (kinase selectivity in THP-1 cell lysates)) EUB0000639a STK38L. The test is classed as subcellular. Conditions: lysate, at 1 µM.
Chain of Serine/threonine-protein kinase 38-like (Homo sapiens) (Q9Y2H1 2-464 limits assumed): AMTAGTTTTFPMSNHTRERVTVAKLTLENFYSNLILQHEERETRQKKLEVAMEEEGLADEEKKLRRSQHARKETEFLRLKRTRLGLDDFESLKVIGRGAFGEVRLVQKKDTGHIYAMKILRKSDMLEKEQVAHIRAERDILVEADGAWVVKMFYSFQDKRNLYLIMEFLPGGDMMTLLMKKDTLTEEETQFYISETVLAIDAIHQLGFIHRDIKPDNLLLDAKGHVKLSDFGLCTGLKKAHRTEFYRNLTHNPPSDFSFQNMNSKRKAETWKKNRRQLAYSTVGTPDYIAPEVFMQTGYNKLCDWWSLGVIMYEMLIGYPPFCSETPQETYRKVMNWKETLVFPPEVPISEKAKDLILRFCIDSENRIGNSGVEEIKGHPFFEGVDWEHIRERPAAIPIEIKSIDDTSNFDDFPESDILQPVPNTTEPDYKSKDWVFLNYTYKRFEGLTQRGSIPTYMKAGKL
In test [12] the target is Tyrosine-protein kinase receptor Tie-1 (Homo sapiens) (UniProt P35590). In words: Selectivity interaction (KinomeScan (DiscoverX)) EUB0000699a TIE1. Conditions: at 10 µM.
Test [13] deals with Aurora kinase B (Homo sapiens, UniProt Q96GD4). In words: Selectivity interaction (ProQinase) EUB0000171b AURKB.
Chain of Aurora kinase B (Q96GD4 whole entry): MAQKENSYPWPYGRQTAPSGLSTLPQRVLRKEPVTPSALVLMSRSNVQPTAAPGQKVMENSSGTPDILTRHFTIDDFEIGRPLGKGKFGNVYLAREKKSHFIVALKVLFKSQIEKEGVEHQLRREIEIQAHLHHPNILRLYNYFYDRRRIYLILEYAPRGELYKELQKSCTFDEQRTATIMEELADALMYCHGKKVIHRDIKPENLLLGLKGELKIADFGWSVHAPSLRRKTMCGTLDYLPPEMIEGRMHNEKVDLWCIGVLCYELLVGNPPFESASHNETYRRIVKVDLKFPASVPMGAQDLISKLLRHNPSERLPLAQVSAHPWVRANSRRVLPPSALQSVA
The target in test [14] is T3, Serine/threonine-protein kinase 3 (Homo sapiens) (UniProt Q13188).
T3 sequence (whole entry): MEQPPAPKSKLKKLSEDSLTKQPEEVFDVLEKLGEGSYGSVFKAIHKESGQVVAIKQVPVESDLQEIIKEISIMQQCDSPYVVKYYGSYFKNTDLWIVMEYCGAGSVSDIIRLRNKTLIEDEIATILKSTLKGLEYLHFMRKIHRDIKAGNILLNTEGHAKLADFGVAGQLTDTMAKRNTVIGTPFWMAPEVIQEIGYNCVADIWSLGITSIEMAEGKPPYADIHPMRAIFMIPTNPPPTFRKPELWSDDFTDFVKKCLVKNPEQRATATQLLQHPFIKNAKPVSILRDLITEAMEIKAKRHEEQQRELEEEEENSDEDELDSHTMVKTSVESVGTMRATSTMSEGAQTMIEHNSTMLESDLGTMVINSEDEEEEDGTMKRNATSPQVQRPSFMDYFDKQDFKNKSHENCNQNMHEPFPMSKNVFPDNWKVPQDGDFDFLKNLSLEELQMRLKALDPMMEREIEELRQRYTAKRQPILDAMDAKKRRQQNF
In words: Selectivity interaction (Kinase panel (DSF assay)) EUB0001489b STK3. On the technique in general: DSF heats the sample and reads unfolding from a dye or from intrinsic fluorescence.

In test [15] the target is Serine/threonine-protein kinase VRK2 (Homo sapiens) (UniProt Q86Y07). Briefly: Selectivity interaction (KinomeScan (DiscoverX)) EUB0000045b VRK2.
Chain of Serine/threonine-protein kinase VRK2 (Homo sapiens) (Q86Y07 whole entry): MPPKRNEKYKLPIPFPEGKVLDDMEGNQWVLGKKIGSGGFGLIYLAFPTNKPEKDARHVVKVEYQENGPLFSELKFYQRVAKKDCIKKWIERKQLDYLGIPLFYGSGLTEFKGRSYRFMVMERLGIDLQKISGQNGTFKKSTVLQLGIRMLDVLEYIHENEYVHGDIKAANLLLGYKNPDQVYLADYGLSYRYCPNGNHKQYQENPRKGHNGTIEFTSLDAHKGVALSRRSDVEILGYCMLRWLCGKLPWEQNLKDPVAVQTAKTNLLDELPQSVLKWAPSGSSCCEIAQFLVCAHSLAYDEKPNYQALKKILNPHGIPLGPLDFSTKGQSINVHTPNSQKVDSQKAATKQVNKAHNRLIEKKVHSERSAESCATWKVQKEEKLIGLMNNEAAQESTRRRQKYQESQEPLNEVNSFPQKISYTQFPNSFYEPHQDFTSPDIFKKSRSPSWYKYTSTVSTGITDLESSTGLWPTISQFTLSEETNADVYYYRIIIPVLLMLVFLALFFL
Test [16] addresses Protein kinase C beta type (Homo sapiens, UniProt P05771). Briefly: Selectivity interaction (Upstate Kinase Profiler service (Millipore)) EUB0000056c PRKCB. To be noted: at 1 µM.
For test [17], the target named is G protein-coupled receptor kinase 5 (Homo sapiens, UniProt P34947). Briefly: Selectivity interaction (Upstate Kinase Profiler service (Millipore)) EUB0000056c GRK5. Conditions: at 1 µM.
The target of test [18] is Vascular endothelial growth factor receptor 3 (Homo sapiens, UniProt P35916). In words: Selectivity interaction (KinomeScan (DiscoverX)) EUB0000595a FLT4. Conditions: at 10 µM.

This is an account of results in ChEMBL document CHEMBL5465560, “Selectivity Literature for EUbOPEN Chemogenomic Library” (2024).

Chain of Calcium/calmodulin-dependent protein kinase kinase 2 (Homo sapiens) (Q96RR4 2-588 limits assumed): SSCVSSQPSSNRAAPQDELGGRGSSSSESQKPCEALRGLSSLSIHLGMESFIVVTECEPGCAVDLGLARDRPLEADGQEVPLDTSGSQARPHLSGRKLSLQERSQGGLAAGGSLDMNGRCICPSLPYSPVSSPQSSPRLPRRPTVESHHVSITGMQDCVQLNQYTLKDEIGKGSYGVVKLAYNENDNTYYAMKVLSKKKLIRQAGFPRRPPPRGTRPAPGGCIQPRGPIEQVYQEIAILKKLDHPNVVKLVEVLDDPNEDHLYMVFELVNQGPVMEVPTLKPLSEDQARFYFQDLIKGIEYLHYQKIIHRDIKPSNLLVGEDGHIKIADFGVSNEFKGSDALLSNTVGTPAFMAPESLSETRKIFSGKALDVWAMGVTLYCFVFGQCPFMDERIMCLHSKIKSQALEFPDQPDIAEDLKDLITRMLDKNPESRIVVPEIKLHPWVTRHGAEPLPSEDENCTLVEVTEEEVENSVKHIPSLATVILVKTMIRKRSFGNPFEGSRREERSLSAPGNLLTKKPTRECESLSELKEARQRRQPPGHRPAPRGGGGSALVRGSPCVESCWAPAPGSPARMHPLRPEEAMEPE
Chain of Dual specificity mitogen-activated protein kinase kinase 2 (Homo sapiens) (P36507 whole entry): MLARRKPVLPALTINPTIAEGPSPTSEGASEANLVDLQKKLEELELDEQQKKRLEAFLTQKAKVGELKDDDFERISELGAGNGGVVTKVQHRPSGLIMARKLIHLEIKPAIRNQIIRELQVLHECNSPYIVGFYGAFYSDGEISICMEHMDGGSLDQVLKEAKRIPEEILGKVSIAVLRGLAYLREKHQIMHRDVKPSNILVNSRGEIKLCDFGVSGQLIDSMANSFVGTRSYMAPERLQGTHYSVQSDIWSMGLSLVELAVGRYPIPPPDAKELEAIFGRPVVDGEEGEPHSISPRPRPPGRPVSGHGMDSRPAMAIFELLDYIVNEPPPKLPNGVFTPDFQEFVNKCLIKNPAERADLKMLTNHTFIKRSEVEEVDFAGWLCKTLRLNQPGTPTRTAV
Chain of Cyclin-dependent kinase 16 (Homo sapiens) (Q00536 whole entry): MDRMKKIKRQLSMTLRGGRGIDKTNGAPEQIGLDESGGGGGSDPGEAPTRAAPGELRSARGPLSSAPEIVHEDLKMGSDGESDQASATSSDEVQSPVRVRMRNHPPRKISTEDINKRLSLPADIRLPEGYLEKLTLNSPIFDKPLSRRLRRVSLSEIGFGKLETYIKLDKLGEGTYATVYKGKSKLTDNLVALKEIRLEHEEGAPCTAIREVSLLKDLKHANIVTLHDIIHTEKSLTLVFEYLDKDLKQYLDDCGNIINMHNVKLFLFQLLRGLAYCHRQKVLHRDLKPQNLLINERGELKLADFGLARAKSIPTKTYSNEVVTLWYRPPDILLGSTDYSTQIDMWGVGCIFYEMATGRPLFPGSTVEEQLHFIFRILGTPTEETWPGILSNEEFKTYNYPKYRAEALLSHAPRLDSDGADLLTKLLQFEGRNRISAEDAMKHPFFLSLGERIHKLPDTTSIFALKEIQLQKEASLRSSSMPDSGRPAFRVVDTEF
Chain of Melanocortin receptor 3 (P41968 whole entry): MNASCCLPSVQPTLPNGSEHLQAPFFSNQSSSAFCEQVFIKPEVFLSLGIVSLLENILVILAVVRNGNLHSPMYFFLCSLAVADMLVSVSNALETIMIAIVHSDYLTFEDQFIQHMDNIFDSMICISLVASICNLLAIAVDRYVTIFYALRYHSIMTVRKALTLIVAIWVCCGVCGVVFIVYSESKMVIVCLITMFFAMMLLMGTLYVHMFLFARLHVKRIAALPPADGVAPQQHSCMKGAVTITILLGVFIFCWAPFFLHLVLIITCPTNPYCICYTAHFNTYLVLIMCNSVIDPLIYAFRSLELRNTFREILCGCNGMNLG
Chain of Casein kinase I isoform alpha (P48729 2-337 limits assumed): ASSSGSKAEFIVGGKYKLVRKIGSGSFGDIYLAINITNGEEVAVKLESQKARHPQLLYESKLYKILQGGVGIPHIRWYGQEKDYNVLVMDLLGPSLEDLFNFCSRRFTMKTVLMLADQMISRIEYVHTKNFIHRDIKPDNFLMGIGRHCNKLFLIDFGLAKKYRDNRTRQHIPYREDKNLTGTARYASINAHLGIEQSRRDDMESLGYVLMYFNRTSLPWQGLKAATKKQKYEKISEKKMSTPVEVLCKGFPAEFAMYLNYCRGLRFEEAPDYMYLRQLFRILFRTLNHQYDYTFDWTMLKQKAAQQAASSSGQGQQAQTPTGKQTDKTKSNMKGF

For the compound `Cn1cc(-n2cnc3c(NCc4nc5cc(Cl)c(Cl)cc5[nH]4)nc(N4CCOCC4)nc32)cn1`, in test [1], the % of control came to 3.34%.
In the case of `CNC(=O)Nc1ccc(-c2nc(N3CC4CCC(C3)O4)c3cnn(C4CCC5(CC4)OCCO5)c3n2)cc1`, the % of control in [2] and in [4] was 100% each time. In addition, in [3], the % of inhibition was 2%.
In turn, `O=C(NOC[C@H](O)CO)c1ccc(F)c(F)c1Nc1ccc(I)cc1F` had a % of control in [5] of 87%.
With `COc1cc(N(C)c2ccnc3ccc(C(F)(F)F)cc23)cc(OC)c1OC`, the % binding in test [6] was found to be 90%.
Turning to `N#Cc1cccc(-c2c[nH]c3ncnc(N4CCOCC4)c23)c1`, the % of inhibition in test [7] came to 33%.
For orientation: IC50 means the midpoint of a concentration-inhibition curve. As for `CCC(=O)N1CC[C@H](Nc2ncnc3c2CN(c2cnc(OC)c(C(F)(F)F)c2)CC3)C1` [LENIOLISIB], the IC50 in test [8] is more than 30 µM.
Take `CC[C@@H]1[C@H](F)C(=O)N[C@@H]1COc1nccc2cc(C(N)=O)c(OC)cc12` [ZIMLOVISERTIB]: the values for the % of inhibition in test [9], in [10] and in test [11] were 56.9%, 14.5% and 47.8%, respectively.
As to `CCN(CC)CCCCNc1ncc2cc(-c3cc(OC)cc(OC)c3)c(NC(=O)NC(C)(C)C)nc2n1`, the % of control in [12] turned out to be 12%.
In the case of `C=CC(=O)Nc1cccc(C(=O)Nc2ccc(Nc3cc(-c4[nH]c(SC)nc4C)ccn3)cc2)c1`, the results for the % of control in [13] (at 1 µM) and in test [13] (at 5 µM) were 73% and 40%, respectively.
Turning to `CN1CCN(C(=O)c2ccc3cc2OCCOCCNc2ccn4ncc-3c4n2)CC1`, the dTM in [14] stood at 3.4 K.
For `C=CC(=O)Nc1cc(-n2c(=O)ccc3cnc4ccc(-c5ccc(NS(C)(=O)=O)cc5)cc4c32)ccc1C`, the % of control came to 100% in test [15] (at 1 µM) and 86% in [15] (at 10 µM).
For the compound `Cc1ccc(-c2ccc3c(ccc4sc5c(c43)NC[C@@H](C)NC5=O)n2)cn1`, the % of inhibition in test [16] is 8%; in [17], -23%.
Compound `COCC(=O)NC/C=C/c1ccc2ncnc(Nc3ccc(Oc4ccc(C)nc4)c(C)c3)c2c1` [CP-724714] had a % of control in test [18] of 98%.
